Experimental findings from patent US20240165244A1 (Prelude Therapeutics Incorporated, priority 2022, published 2024) are described below.

The target of one assay is T1, SMARCA2 (Homo sapiens, UniProt P51531).
T1 construct: SMARCA2-HiBiT knock-in Hela monoclonal cell (CS302366); host or cells: HeLa monoclonal cells with heterozygous HiBiT knock-in at the endogenous SMARCA2 locus
Briefly: SMARCA2 HiBiT degradation assay in HeLa cells. In kind it is cell-based. Conditions: 18 hours, highest concentration 10 μM. In short, it runs like this: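 HeLa cells carrying a heterozygous C-terminal HiBiT knock-in on SMARCA2 were seeded at 2500 cells/well. They were treated with 3-fold dilution series, top concentration 10 μM, for 18 h at 37 °C. Remaining SMARCA2-HiBiT was measured by Nano-Glo HiBiT lytic luminescence after 30-60 min at RT, followed by curve fitting.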
For orientation: With HiBiT, luminescence reflects the tagged protein that the partner subunit can reach.

A further assay addresses T2, SMARCA4 (Homo sapiens, UniProt P51532).
T2 construct: SMARCA4-HiBiT knock-in Hela monoclonal cell (CS3023226); host or cells: HeLa monoclonal cells with heterozygous HiBiT knock-in at the endogenous SMARCA4 locus
Briefly: SMARCA4 HiBiT degradation assay in HeLa cells. In kind it is cell-based. The settings on record: 18 hours, highest concentration 10 μM. Put shortly:
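HeLa monoclonal cells with HiBiT knocked into SMARCA4 were seeded at 2500 cells/well, dosed with compound and incubated 18 hours at 37° C. HiBiT signal reported remaining SMARCA4 protein, and values came from curve fitting.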

The structures appear in SMILES notation. Where only a bound is given, the exact number is not on record here.

T2 sequence (P51532 whole entry): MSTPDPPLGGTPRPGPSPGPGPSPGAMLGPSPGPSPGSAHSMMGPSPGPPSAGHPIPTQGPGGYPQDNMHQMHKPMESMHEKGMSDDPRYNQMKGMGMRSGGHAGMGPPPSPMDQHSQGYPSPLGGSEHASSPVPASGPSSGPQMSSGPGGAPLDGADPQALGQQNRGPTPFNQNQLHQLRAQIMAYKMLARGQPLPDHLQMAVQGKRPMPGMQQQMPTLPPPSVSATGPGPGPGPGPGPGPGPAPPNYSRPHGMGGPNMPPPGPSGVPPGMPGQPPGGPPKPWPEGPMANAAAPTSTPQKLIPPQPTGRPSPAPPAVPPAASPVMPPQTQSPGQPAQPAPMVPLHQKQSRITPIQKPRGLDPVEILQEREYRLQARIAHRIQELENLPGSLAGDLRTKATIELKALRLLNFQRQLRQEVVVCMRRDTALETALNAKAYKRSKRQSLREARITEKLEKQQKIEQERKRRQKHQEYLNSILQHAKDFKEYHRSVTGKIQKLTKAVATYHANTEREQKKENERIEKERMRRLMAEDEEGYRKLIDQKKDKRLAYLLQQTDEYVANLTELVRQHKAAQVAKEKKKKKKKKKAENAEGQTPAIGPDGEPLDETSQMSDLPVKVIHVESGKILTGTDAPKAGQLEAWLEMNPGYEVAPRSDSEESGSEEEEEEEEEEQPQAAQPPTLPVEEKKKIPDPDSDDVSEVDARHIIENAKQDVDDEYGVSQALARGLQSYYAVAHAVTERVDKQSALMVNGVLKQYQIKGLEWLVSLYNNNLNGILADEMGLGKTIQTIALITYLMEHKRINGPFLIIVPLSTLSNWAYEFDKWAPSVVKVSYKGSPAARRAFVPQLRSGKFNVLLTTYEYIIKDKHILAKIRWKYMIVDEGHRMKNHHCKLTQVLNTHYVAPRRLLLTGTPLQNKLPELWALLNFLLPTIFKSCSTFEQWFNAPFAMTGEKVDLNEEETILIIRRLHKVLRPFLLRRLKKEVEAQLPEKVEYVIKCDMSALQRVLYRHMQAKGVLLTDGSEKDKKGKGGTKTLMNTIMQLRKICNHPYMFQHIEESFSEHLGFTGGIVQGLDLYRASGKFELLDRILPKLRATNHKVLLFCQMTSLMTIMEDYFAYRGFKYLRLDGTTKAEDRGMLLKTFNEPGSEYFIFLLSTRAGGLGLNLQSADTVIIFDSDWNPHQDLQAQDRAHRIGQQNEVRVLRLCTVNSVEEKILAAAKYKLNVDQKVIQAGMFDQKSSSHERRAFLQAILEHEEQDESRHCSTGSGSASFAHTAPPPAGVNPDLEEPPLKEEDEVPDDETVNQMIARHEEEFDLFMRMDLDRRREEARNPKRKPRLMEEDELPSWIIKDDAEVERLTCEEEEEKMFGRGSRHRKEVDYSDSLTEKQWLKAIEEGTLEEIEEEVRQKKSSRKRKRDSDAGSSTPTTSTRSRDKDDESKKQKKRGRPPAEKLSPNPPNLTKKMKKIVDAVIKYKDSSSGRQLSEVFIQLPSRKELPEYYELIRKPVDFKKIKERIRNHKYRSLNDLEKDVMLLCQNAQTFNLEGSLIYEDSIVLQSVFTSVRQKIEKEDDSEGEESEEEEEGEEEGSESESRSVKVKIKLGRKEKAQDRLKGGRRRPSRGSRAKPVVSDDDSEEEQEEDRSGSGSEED
T1 sequence (P51531 whole entry): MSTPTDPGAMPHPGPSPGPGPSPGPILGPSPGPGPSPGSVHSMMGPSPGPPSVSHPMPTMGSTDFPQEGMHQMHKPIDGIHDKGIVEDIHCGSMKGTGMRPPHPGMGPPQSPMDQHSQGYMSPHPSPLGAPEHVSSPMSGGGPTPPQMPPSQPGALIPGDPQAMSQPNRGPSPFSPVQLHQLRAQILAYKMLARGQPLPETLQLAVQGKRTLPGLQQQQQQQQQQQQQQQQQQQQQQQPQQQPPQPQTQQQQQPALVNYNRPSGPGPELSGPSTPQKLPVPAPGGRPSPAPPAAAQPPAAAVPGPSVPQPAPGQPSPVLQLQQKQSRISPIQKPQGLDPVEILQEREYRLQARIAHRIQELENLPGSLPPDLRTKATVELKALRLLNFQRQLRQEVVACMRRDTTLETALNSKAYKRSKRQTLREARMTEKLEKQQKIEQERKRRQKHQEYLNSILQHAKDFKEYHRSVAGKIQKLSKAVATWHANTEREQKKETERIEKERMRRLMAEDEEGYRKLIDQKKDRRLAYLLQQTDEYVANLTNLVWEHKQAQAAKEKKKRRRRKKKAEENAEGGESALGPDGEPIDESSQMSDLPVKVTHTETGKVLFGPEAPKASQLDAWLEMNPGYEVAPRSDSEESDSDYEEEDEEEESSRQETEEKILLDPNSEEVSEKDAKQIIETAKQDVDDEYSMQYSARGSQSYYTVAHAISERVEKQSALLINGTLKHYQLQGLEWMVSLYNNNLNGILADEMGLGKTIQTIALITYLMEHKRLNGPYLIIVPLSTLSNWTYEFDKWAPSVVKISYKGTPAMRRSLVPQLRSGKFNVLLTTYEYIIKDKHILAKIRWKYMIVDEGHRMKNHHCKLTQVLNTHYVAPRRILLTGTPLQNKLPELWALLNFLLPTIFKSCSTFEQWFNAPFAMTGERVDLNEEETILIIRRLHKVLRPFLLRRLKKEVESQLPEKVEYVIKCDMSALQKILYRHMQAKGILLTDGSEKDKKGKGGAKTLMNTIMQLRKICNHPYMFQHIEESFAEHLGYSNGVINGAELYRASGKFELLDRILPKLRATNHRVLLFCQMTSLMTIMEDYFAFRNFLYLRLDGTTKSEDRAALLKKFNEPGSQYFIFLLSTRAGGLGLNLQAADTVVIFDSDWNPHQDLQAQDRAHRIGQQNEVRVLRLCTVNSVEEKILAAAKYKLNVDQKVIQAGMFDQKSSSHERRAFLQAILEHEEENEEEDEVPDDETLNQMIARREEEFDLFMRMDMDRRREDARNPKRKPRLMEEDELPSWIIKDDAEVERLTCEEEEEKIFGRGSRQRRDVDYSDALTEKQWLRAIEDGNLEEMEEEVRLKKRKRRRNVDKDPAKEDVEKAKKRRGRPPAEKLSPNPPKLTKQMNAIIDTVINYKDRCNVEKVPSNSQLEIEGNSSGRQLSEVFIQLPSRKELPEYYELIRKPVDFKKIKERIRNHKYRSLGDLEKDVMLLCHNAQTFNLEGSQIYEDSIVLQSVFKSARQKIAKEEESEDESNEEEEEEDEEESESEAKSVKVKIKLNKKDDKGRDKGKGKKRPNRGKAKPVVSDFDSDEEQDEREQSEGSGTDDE

What is called DC50 is the midpoint of the concentration-degradation curve. Usually Dmax stands for the greatest extent of degradation seen. On to `Cc1c(CN2CCN(c3ccc4c(c3)C(=O)N([C@H]3CCC(=O)NC3=O)C4)CC2)cnc(O[C@H]2CN3c4cc(-c5cccc(F)c5O)nnc4NC[C@@]3(CF)C2)c1F` [Example 71, (S)-3-(6-(4-((5-fluoro-6-(((6aR,8R)-2-(3-fluoro-2-hydroxyphenyl)-6a-(fluoromethyl)-5,6,6a,7,8,9-hexahydropyrrolo[1′,2′:4,5]pyrazino[2,3-c]pyridazin-8-yl)oxy)-4-methylpyridin-3-yl)methyl)piperazin-1-yl)-1-oxoisoindolin-2-yl)piperidine-2,6-dione], for which the DC50 at SMARCA2 was < 100 nM; on SMARCA4 it was > 1000 nM. The Dmax is > 75% at SMARCA2 and < 50% at SMARCA4.
Turning to `CC[C@@]12CNc3nnc(-c4cccc(F)c4O)cc3N1C[C@H](Oc1cnc(CN3CCN(c4ccc5c(c4)CN([C@H]4CCC(=O)NC4=O)C5)CC3)c(F)c1)C2` [Example 72, (S)-3-(6-(4-((5-(((6aR,8R)-6a-Ethyl-2-(3-fluoro-2-hydroxyphenyl)-5,6,6a,7,8,9-exahydropyrrolo[1′,2′:4,5]pyrazino[2,3-c]pyridazin-8-yl)oxy)-3-fluoropyridin-2-yl)methyl)piperazin-1-yl)-1-oxoisoindolin-2-yl)piperidine-2,6-dione], the 50% degradation concentration (DC50) on SMARCA2 is < 100 nM; on SMARCA4 it was 100 to 1000 nM. For the same compound, the values for the Dmax on SMARCA2 and on SMARCA4 were > 75% and < 50%, respectively.
For `CC[C@]12CNc3nnc(-c4cccc(F)c4O)cc3N1C[C@H](Oc1cnc(CN3CCN(c4ccc5c(c4)CN([C@H]4CCC(=O)NC4=O)C5=O)CC3)c(C(F)(F)F)c1)C2` [Example 73, (S)-3-(5-(4-((5-(((6aS,8R)-6a-ethyl-2-(3-fluoro-2-hydroxyphenyl)-5,6,6a,7,8,9-hexahydropyrrolo[1′,2′:4,5]pyrazino[2,3-c]pyridazin-8-yl)oxy)-3-(trifluoromethyl)pyridin-2-yl)methyl)piperazin-1-yl)-1-oxoisoindolin-2-yl)piperidine-2,6-dione], the DC50 at SMARCA2 and on SMARCA4 was < 100 nM throughout. Also, the figures for the Dmax at SMARCA2 and at SMARCA4 were > 75% and 50 to 75%, respectively.
`CC[C@]12CNc3nnc(-c4cccc(F)c4O)cc3N1C[C@H](Oc1cnc(CN3CCN(c4ccc5c(c4)CN([C@H]4CCC(=O)NC4=O)C5=O)CC3)c(C)c1)C2` [Example 74, (S)-3-(5-(4-((5-(((6aS,8R)-6a-ethyl-2-(3-fluoro-2-hydroxyphenyl)-5,6,6a,7,8,9-hexahydropyrrolo[1′,2′:4,5]pyrazino[2,3-c]pyridazin-8-yl)oxy)-3-methylpyridin-2-yl)methyl)piperazin-1-yl)-1-oxoisoindolin-2-yl)piperidine-2,6-dione]: at SMARCA2, the half-maximal degradation concentration (DC50) is < 100 nM and the Dmax is > 75%. At SMARCA4, the half-maximal degradation concentration (DC50) is < 100 nM and the Dmax was > 75%.
Take `Cc1nc(O[C@H]2CN3c4cc(-c5cccc(F)c5O)nnc4NC[C@@]3(C)C2)nc(C)c1CN1CCN(c2ccc3c(c2)C(=O)N([C@H]2CCC(=O)NC2=O)C3)CC1` [Example 75, (S)-3-(6-(4-((2-(((6aR,8R)-2-(3-fluoro-2-hydroxyphenyl)-6a-methyl-5,6,6a,7,8,9-hexahydropyrrolo[1′,2′:4,5]pyrazino[2,3-c]pyridazin-8-yl)oxy)-4,6-dimethylpyrimidin-5-yl)methyl)piperazin-1-yl)-1-oxoisoindolin-2-yl)piperidine-2,6-dione]: the figures for the DC50 on SMARCA2 and at SMARCA4 were < 100 nM and 100 to 1000 nM, respectively. For the same compound, the maximal degradation (Dmax) on SMARCA2 is > 75%; on SMARCA4 it was < 50%.
On to `C[C@]12CNc3nnc(-c4cccc(F)c4O)cc3N1C[C@H](Oc1cc(C#N)c(CN3CCN(c4ccc5c(c4)C(=O)N([C@H]4CCC(=O)NC4=O)C5)CC3)cn1)C2` [Example 76, 5-((4-(2-((S)-2,6-dioxopiperidin-3-yl)-3-oxoisoindolin-5-yl)piperazin-1-yl)methyl)-2-(((6aS,8R)-2-(3-fluoro-2-hydroxyphenyl)-6a-methyl-5,6,6a,7,8,9-hexahydropyrrolo[1′,2′:4,5]pyrazino[2,3-c]pyridazin-8-yl)oxy)isonicotinonitrile], for which, on SMARCA2, the half-maximal degradation concentration (DC50) was < 100 nM and the Dmax is > 75%. Also, on SMARCA4, the DC50 was < 100 nM and the maximal degradation (Dmax) is > 75%.
As to `Cc1nc(O[C@H]2CN3c4cc(-c5cccc(F)c5O)nnc4NC[C@@]3(C)C2)ncc1CN1CCC(c2ccc3c(c2)C(=O)N([C@H]2CCC(=O)NC2=O)C3)CC1` [Example 77, (S)-3-(6-(1-((2-(((6aR,8R)-2-(3-fluoro-2-hydroxyphenyl)-6a-methyl-5,6,6a,7,8,9-hexahydropyrrolo[1′,2′:4,5]pyrazino[2,3-c]pyridazin-8-yl)oxy)-4-methylpyrimidin-5-yl)methyl)piperidin-4-yl)-1-oxoisoindolin-2-yl)piperidine-2,6-dione], at SMARCA2, the 50% degradation concentration (DC50) was < 100 nM and the Dmax is > 75%. Moreover, at SMARCA4, the DC50 is > 1000 nM and the Dmax is < 50%.
Regarding `Cc1nc(O[C@H]2CN3c4cc(-c5cccc(F)c5O)nnc4NC[C@@]3(C)C2)nc(C)c1CN1CCC(c2ccc3c(c2)C(=O)N([C@H]2CCC(=O)NC2=O)C3)CC1` [Example 78, (S)-3-(6-(1-((2-(((6aR,8R)-2-(3-fluoro-2-hydroxyphenyl)-6a-methyl-5,6,6a,7,8,9-hexahydropyrrolo[1′,2′:4,5]pyrazino[2,3-c]pyridazin-8-yl)oxy)-4,6-dimethylpyrimidin-5-yl)methyl)piperidin-4-yl)-1-oxoisoindolin-2-yl)piperidine-2,6-dione], at SMARCA2, the DC50 is < 100 nM and the greatest degradation seen (Dmax) was > 75%. Further, at SMARCA4, the DC50 was > 1000 nM and the maximal degradation (Dmax) was < 50%.
For `C[C@]12CNc3nnc(-c4cccc(F)c4O)cc3N1C[C@H](Oc1cnc(CN3CCN(c4ccc5c(c4)C(=O)N([C@H]4CCC(=O)NC4=O)C5)CC3)cn1)C2` [Example 79, (S)-3-(6-(4-((5-(((6aS,8R)-2-(3-fluoro-2-hydroxyphenyl)-6a-methyl-5,6,6a,7,8,9-hexahydropyrrolo[1′,2′:4,5]pyrazino[2,3-c]pyridazin-8-yl)oxy)pyrazin-2-yl)methyl)piperazin-1-yl)-1-oxoisoindolin-2-yl)piperidine-2,6-dione] the same measures were < 100 nM, > 75%, < 100 nM and 50 to 75%.
Turning to `Cc1cc(O[C@H]2CN3c4cc(-c5cccc(F)c5O)nnc4NC[C@]3(C)C2)c(C)nc1CN1CCN(c2ccc3c(c2)C(=O)N([C@H]2CCC(=O)NC2=O)C3)CC1` [Example 80, (S)-3-(6-(4-((5-(((6aS,8R)-2-(3-fluoro-2-hydroxyphenyl)-6a-methyl-5,6,6a,7,8,9-hexahydropyrrolo[1′,2′:4,5]pyrazino[2,3-c]pyridazin-8-yl)oxy)-3,6-dimethylpyridin-2-yl)methyl)piperazin-1-yl)-1-oxoisoindolin-2-yl)piperidine-2,6-dione], on SMARCA2, the half-maximal degradation concentration (DC50) is < 100 nM and the greatest degradation seen (Dmax) is > 75%. Moreover, at SMARCA4, the DC50 was < 100 nM and the greatest degradation seen (Dmax) is 50 to 75%.
Take `Cc1cc(O[C@H]2CN3c4cc(-c5cccc(F)c5O)nnc4NC[C@@]3(C)C2)cnc1CN1CCN(c2ccc3c(c2)C(=O)N([C@H]2CCC(=O)NC2=O)C3)CC1` [Example 81, (S)-3-(6-(4-((5-(((6aR,8R)-2-(3-fluoro-2-hydroxyphenyl)-6a-methyl-5,6,6a,7,8,9-hexahydropyrrolo[1′,2′:4,5]pyrazino[2,3-c]pyridazin-8-yl)oxy)-3-methylpyridin-2-yl)methyl)piperazin-1-yl)-1-oxoisoindolin-2-yl)piperidine-2,6-dione]: the values for the DC50 at SMARCA2 and on SMARCA4 were < 100 nM and 100 to 1000 nM, respectively. The maximal degradation (Dmax) at SMARCA2 was > 75%; on SMARCA4 it was < 50%.
As for `Cc1cc(O[C@H]2CN3c4cc(-c5cccc(F)c5O)nnc4NC[C@]3(C)C2)cnc1CN1CCN(c2ccc3c(c2)C(=O)N([C@H]2CCC(=O)NC2=O)C3)CC1` [Example 82, (S)-3-(6-(4-((5-(((6aS,8R)-2-(3-fluoro-2-hydroxyphenyl)-6a-methyl-5,6,6a,7,8,9-hexahydropyrrolo[1′,2′:4,5]pyrazino[2,3-c]pyridazin-8-yl)oxy)-3-methylpyridin-2-yl)methyl)piperazin-1-yl)-1-oxoisoindolin-2-yl)piperidine-2,6-dione], at SMARCA2, the half-maximal degradation concentration (DC50) was < 100 nM and the Dmax was > 75%. Further, at SMARCA4, the half-maximal degradation concentration (DC50) was < 100 nM and the Dmax lay within 50 to 75%.
With `Cc1cc(CN2CCN(c3ccc4c(c3)C(=O)N([C@H]3CCC(=O)NC3=O)C4)CC2)cnc1O[C@H]1CN2c3cc(-c4cccc(F)c4O)nnc3NC[C@]2(C)C1` [Example 83, (S)-3-(6-(4-((6-(((6aS,8R)-2-(3-fluoro-2-hydroxyphenyl)-6a-methyl-5,6,6a,7,8,9-hexahydropyrrolo[1′,2′:4,5]pyrazino[2,3-c]pyridazin-8-yl)oxy)-5-methylpyridin-3-yl)methyl)piperazin-1-yl)-1-oxoisoindolin-2-yl)piperidine-2,6-dione], the 50% degradation concentration (DC50) at SMARCA2 and on SMARCA4 was < 100 nM throughout. For the same compound, the Dmax at SMARCA2 and on SMARCA4 was > 75% each time.
As for `O=C1CCC(N2Cc3ccc(N4CCN(Cc5cnc(O[C@H]6CN7c8cc(-c9cccc(F)c9O)nnc8NC[C@@]7(C(F)F)C6)c(F)c5)CC4)cc3C2=O)C(=O)N1` (stereo partly drawn) [Example 84, 3-(6-(4-((6-(((6aR,8R)-6a-(difluoromethyl)-2-(3-fluoro-2-hydroxyphenyl)-5,6,6a,7,8,9-hexahydropyrrolo[1′,2′:4,5]pyrazino[2,3-c]pyridazin-8-yl)oxy)-5-fluoropyridin-3-yl)methyl)piperazin-1-yl)-1-oxoisoindolin-2-yl)piperidine-2,6-dione], at SMARCA2, the 50% degradation concentration (DC50) is < 100 nM and the Dmax was > 75%. On SMARCA4, the DC50 fell in the range of 100 to 1000 nM and the Dmax is < 50%.
